Test results: patent publication US6919331B2, “Substituted 2-methyl-benzimidazole respiratory syncytial virus antiviral agents” (Bristol-Myers Squibb Company, priority 2001, dated 2005)

Test system: respiratory syncytial virus Long strain
Experiment: cell protection assay (RSV-induced cytopathic effects, MTT staining)
Type: cell-based
Protocol: For cell protection assays, HEp-2 (ATCC CCL 23) cells were seeded in 96 well microtiter plates at 1.5×10^4 cells/100 μL/well in DMEM (Dulbecco's Modified Eagle's Medium) supplemented with penicillin, streptomycin, glutamine, and 10% fetal bovine serum. After overnight incubation at 37° C., the culture medium was removed and cells were infected with respiratory syncytial virus Long strain at 5000 plaque forming units (PFU)/mL in a 100 μL volume of medium containing 2% fetal bovine serum. The compounds, 100 μL at appropriate dilution, were added to the cells one hour post infection. After incubation for 4 days at 37° C., the plates were stained with MTT solution (3-[4,5-dimethlythiazol-2-yl]-2,5-diphenyltetrazolium bromide) and incubated for 4 hours at 37° C. The media was aspirated from the cells and 100 μL/well of acidified isopropanol (per liter: 900 mL isopropanol, 100 mL Triton X100, and 4 mL conc. HCl) was added. Plates were incubated for 15 minutes at room temperature with shaking, and an optical density (OD 540) reading at 540 nanometer (nm) was obtained. The optical density reading is proportional to the number of viable cells. The increase in the number of viable cells reflects the protective, antiviral activity of the compound. […]

Compound: NC(=O)c1ncn([C@@H]2O[C@H](CO)[C@@H](O)[C@H]2O)n1 [Ribavirin]
- cell protection (at 2.5 μg/mL (corresponding to 10.2 μM), HEp-2 cells, RSV Long strain): 100%
- EC50 (human respiratory syncytial virus, HEp-2 cells infected with RSV Long strain, compound added one hour post infection, 4 days, MTT, read-out: EC50 (concentration that produces 50% cell protection)): 3 µM
